Like-named read-outs stand apart in the source and are kept apart here. *1 amine or outer side, *2 acyl side, *3 side chain or, on linkers, in order; H or OH if unused. Where a SMILES comes first, the peptide text is derived from it. Bridges are numbered along the chain shown (N, C = ends). [ ]: non-standard residue; d: D form. The star is where a group is joined. X3 = CN(C)C(=NCCC[C@H](N[*:1])C(=O)[*:2])N(C)c1ccccc1; X2 = CN(C)C(=NCCC[C@H](N[*:1])C(=O)[*:2])N1CCCC1; X1 = CN(C)C(=NCCC[C@H](N[*:1])C(=O)[*:2])N(C)C; d(aIle) = CC[C@H](C)[C@@H](N)C(=O)O; d(aThr) = C[C@@H](O)[C@@H](N)C(=O)O; Hexanoyl(5-Me) = CC(C)CCCC(=O)*; Orn = NCCC[C@H](N)C(=O)O; Dhb = C/C=C(\N)C(=O)O Some results are limits rather than exact numbers.

What all share (format): cell-based, human
One data set deals with HT-29. Briefly: SRB colorimetric assay of cell growth and viability, HT-29. The following applies: 48 hours exposure; for GI50: read-out: GI50 HT-29; for CC50: read-out: LC50 HT-29. The source says:
(§1) The finality of this assay is to interrupt the growth of a “in vitro” tumor cell culture by means a continued exhibition of the cells to the sample to be testing.
(§2) This form of the assay employs 96 well cell culture microplates of 9 mm diameter (Faircloth, 1988; Mosmann, 1983). Most of the cell lines are obtained from American Type Culture Collection (ATCC) derived from different human cancer types.
(§3) Cells are maintained in RPMI 1640 10% FBS, supplemented with 0.1 g/l penicillin and 0.1 g/l streptomycin sulfate and then incubated at 37° C., 5% CO2 and 98% humidity. For the experiments, cells were harvested from subconfluent cultures using trypsin and resuspended in fresh medium before plating.
(§4) Cells are seeded in 96 well microtiter plates, at 5×10^3 cells per well in aliquots of 195 μL medium, and they are allowed to attach to the plate surface by growing in drug free medium for 18 hours. Afterward, samples are added in aliquots of 5 μL in a ranging from 10 to 10^−8 μg/mL, dissolved in DMSO:EtOH:PBS (0.5:0.5:99). After 48 hours exposure, the antitumor effect are measured by the SRB methodology: cells are fixed by adding 50 μL of cold 50% (wt/vol) trichloroacetic acid (TCA) and incubating for 60 minutes at 4° C. Plates are washed with deionized water and dried. One hundred μL of SRB solution (0.4% wt/vol in 1% acetic acid) is added to each microtiter well and incubated for 10 minutes at room temperature. Unbound SRB is removed by washing with 1% acetic acid. Plates are air dried and bound stain is solubilized with Tris buffer. Optical densities are read on a automated spectrophotometric plate reader at a single wavelength of 490 nm.
(§5) The values for mean+/− SD of data from triplicate wells are calculated. Some parameters for cellular responses can be calculated: GI=growth inhibition, TGI=total growth inhibition (cytostatic effect) and LC=cell killing (cytotoxic effect).

Another data set relates to A-549. Briefly: SRB colorimetric assay of cell growth and viability, A-549. The following applies: 48 hours exposure; for GI50: read-out: GI50 A-549; for CC50: read-out: LC50 A-549.
Excerpt: as §1, §2, §3, §4, §5

The test system of another data set is HeLa-APL. The experiment in a line: SRB colorimetric assay of cell growth and viability, HeLa-APL. Conditions: 48 hours exposure, SRB.
Excerpt: as §1, §2, §3, §4, §5

The subject of a further data set is IGROV-1. The experiment in a line: SRB colorimetric assay of cell growth and viability, IGROV-1. The following applies: 48 hours exposure.
Excerpt: as §1, §2, §3, §4, §5

The subject of the next data set is DU-145. The experiment in a line: SRB colorimetric assay of cell growth and viability, DU-145. The following applies: 48 hours exposure.
Excerpt: as §1, §2, §3, §4, §5

The subject of the next data set is SK-MEL-28. Briefly: SRB colorimetric assay of cell growth and viability, SK-MEL-28. The following applies: 48 hours exposure.
Excerpt: as §1, §2, §3, §4, §5

The test system of a further data set is K-562. The experiment in a line: SRB colorimetric assay of cell growth and viability, K-562. The following applies: 48 hours exposure, SRB.
Excerpt: as §1, §2, §3, §4, §5

In a further data set the test system is LoVo. The experiment in a line: SRB colorimetric assay of cell growth and viability, LoVo. Conditions: 48 hours exposure, SRB.
Excerpt: as §1, §2, §3, §4, §5

The next data set has as its system PANC-1. The experiment in a line: SRB colorimetric assay of cell growth and viability, PANC-1. Conditions: 48 hours exposure, SRB.
Excerpt: as §1, §2, §3, §4, §5

In a further data set the test system is IGROV-ET. The experiment in a line: SRB colorimetric assay of cell growth and viability, IGROV-ET. Conditions: 48 hours exposure.
Excerpt: as §1, §2, §3, §4, §5

The next data set has as its system HeLa. Briefly: SRB colorimetric assay of cell growth and viability, HeLa. The following applies: 48 hours exposure, SRB.
Excerpt: as §1, §2, §3, §4, §5

The subject of another data set is LoVo-Dox. Briefly: SRB colorimetric assay of cell growth and viability, LoVo-Dox. The following applies: 48 hours exposure, SRB.
Excerpt: as §1
A colorimetric type of assay, using sulforhodamine B (SRB) reaction has been adapted for a quantitative measurement of cell growth and viability [following the technique described by Philip Skehan, et al. (1990), New colorimetric cytotoxicity assay for anticancer drug screening, J. Natl. Cancer Inst., 82:1107-1112].
as §2, §3, §4, §5

Take `C/C=C1\NC(=O)[C@H](Cc2ccccc2)NC(=O)[C@@H](C(C)C)NC(=O)[C@@H]([C@@H](C)CC)NC(=O)[C@H](NC(=O)[C@H](NC(=O)[C@H](CCCN)NC(=O)[C@H]2CCCN2C(=O)[C@H](NC(=O)[C@@H](NC(=O)[C@H](CCCN)NC(=O)CCCC(C)C)C(C)C)C(C)C)[C@@H](C)CC)[C@@H](C)OC(=O)[C@H](C(C)C)NC1=O` [Compound 57, [Orn^12, noD-Val^13]-KF] ({Hexanoyl(5-Me)}-[Orn]V[dV][dP][Orn][d(aIle)][d(aThr)][d(aIle)][dV]F[Dhb]V; ester 7-C): the “TGI HT-29” value in the data set on HT-29 (SRB) amounted to 7.18E−06 Molar. The GI50 in the data set with HT-29 (SRB), in the data set with A-549 (SRB), in the data set on HeLa-APL, in the data set with IGROV-1, in the data set on DU-145 and in the data set on SK-MEL-28 was no less than 7.18 µM in each case. Moreover, the GI50 was no less than 7.18 µM in the data set with K-562; no less than 7.18 µM in the data set on LoVo; 3.88 µM in the data set with PANC-1; no less than 7.18 µM in the data set on IGROV-ET; no less than 7.18 µM in the data set with HeLa; no less than 7.18 µM in the data set on LoVo-Dox. Besides, the CC50 in the data set on HT-29 (SRB), with A-549 (SRB), with HeLa-APL (read-out: LC50 HELA-APL), with SK-MEL-28 (read-out: LC50 MEL-28), with K-562 (read-out: LC50 K-562) and in the data set on LoVo (read-out: LC50 LOVO) was no less than 7.18 µM each time. Further, the CC50 in the data set on PANC-1 (read-out: LC50 PANC-1), in the data set on IGROV-ET (read-out: LC50 IGROV-ET), with HeLa (read-out: LC50 HELA) and in the data set on LoVo-Dox (read-out: LC50 LOVO-DOX) was no less than 7.18 µM each time. The “TGI A-549” value in the data set with A-549 (SRB) stood at 7.18E−06 Molar. Also, in the data set on HeLa-APL, the “TGI HELA-APL” value came out at 7.18E−06 Molar. In addition, the LC50 (concentration causing 50% net cell killing) with IGROV-1 was no less than 7.18 µM. The “TGI IGROV” value in the data set with IGROV-1 came to 7.18E−06 Molar. Besides, the LC50 (concentration causing 50% net cell kill) in the data set on DU-145 is no less than 7.18 µM. In the data set with DU-145, the “TGI DU-145” value was found to be 7.18E−06 Molar. For the same compound, the “TGI MEL-28” value with SK-MEL-28 stood at 7.18E−06 Molar. The “TGI K-562” value in the data set with K-562 was found to be 7.18E−06 Molar. The “TGI LOVO” value in the data set on LoVo is given as 7.18E−06 Molar. Moreover, in the data set on PANC-1, the “TGI PANC-1” value is given as 7.18E−06 Molar. For the same compound, the “TGI IGROV-ET” value in the data set on IGROV-ET was found to be 7.18E−06 Molar. Also, in the data set with HeLa, the “TGI HELA” value was determined as 7.18E−06 Molar. In addition, in the data set on LoVo-Dox, the “TGI LOVO-DOX” value amounted to 7.18E−06 Molar.

For `C/C=C1\NC(=O)[C@H](Cc2ccccc2)NC(=O)[C@@H](C(C)C)NC(=O)[C@@H]([C@@H](C)CC)NC(=O)[C@H](NC(=O)[C@H](NC(=O)[C@H](CCCN=C(N(C)C)N(C)c2ccccc2)NC(=O)[C@H]2CCCN2C(=O)[C@H](NC(=O)[C@@H](NC(=O)[C@@H](NC(=O)[C@H](NC(=O)CCCC(C)C)C(C)C)[C@@H](C)O)C(C)C)C(C)C)[C@@H](C)CC)[C@@H](C)OC(=O)[C@H](C(C)C)NC1=O` [Compound 90, [N(Me,Ph),N′(ME)2-Arg^8]-Kahalalide F] ({Hexanoyl(5-Me)}-[dV]TV[dV][dP][X3][d(aIle)][d(aThr)][d(aIle)][dV]F[Dhb]V; ester 8-C), in the data set on HT-29 (SRB), the “TGI HT-29” value was found to be 3.05E−07 Molar. The “TGI A-549” value in the data set on A-549 (SRB) worked out at 4.27E−07 Molar.

With `C/C=C1\NC(=O)[C@H](Cc2ccccc2)NC(=O)[C@@H](C(C)C)NC(=O)[C@@H]([C@@H](C)CC)NC(=O)[C@H](NC(=O)[C@H](NC(=O)[C@H](CCCN=C(N(C)C)N(C)C)NC(=O)[C@H]2CCCN2C(=O)[C@H](NC(=O)[C@@H](NC(=O)[C@@H](NC(=O)[C@H](NC(=O)CCCC(C)C)C(C)C)[C@@H](C)O)C(C)C)C(C)C)[C@@H](C)CC)[C@@H](C)OC(=O)[C@H](C(C)C)NC1=O` [Compound 89, [N(Me)2,N′(Me)2-Arg^8]-Kahalalide F] ({Hexanoyl(5-Me)}-[dV]TV[dV][dP][X1][d(aIle)][d(aThr)][d(aIle)][dV]F[Dhb]V; ester 8-C), in the data set with HT-29 (SRB), the “TGI HT-29” value worked out at 3.17E−07 Molar, the GI50 came out at 0.0635 µM and the CC50 is 0.571 µM. In the data set on A-549 (SRB), the “TGI A-549” value amounted to 4.44E−07 Molar, the GI50 worked out at 0.317 µM and the CC50 stood at 0.635 µM.

As to `C/C=C1\NC(=O)[C@H](Cc2ccccc2)NC(=O)[C@@H](C(C)C)NC(=O)[C@@H]([C@@H](C)CC)NC(=O)[C@H](NC(=O)[C@H](NC(=O)[C@H](CCCN)NC(=O)[C@H]2CCCN2C(=O)[C@H](NC(=O)[C@@H](NC(=O)[C@@H](NC(=O)[C@H](NC(=O)c2ccc3c(c2)OCO3)C(C)C)[C@@H](C)O)C(C)C)C(C)C)[C@@H](C)CC)[C@@H](C)OC(=O)[C@H](C(C)C)NC1=O` [Compound 23, [Pipe^14]-KF], in the data set with HT-29, the “TGI HT-29” value stood at 3.30E−07 Molar, the GI50 was determined as 0.132 µM and the CC50 turned out to be 0.528 µM. In the data set with A-549, the “TGI A-549” value worked out at 1.98E−06 Molar, the GI50 was 0.661 µM and the CC50 turned out to be 4.62 µM.

As to `C/C=C1\NC(=O)[C@H](Cc2ccccc2)NC(=O)[C@@H](C(C)C)NC(=O)[C@@H]([C@@H](C)CC)NC(=O)[C@H](NC(=O)[C@H](NC(=O)[C@H](CCCN=C(N(C)C)N2CCCC2)NC(=O)[C@H]2CCCN2C(=O)[C@H](NC(=O)[C@@H](NC(=O)[C@@H](NC(=O)[C@H](NC(=O)CCCC(C)C)C(C)C)[C@@H](C)O)C(C)C)C(C)C)[C@@H](C)CC)[C@@H](C)OC(=O)[C@H](C(C)C)NC1=O` [Compound 91, [N(CH2)4,N′(Me)2-Arg^8]-Kahalalide F] ({Hexanoyl(5-Me)}-[dV]TV[dV][dP][X2][d(aIle)][d(aThr)][d(aIle)][dV]F[Dhb]V; ester 8-C), in the data set on HT-29 (SRB), the “TGI HT-29” value is 3.12E−07 Molar, the GI50 was 0.0624 µM and the CC50 is 0.562 µM. In the data set with A-549 (SRB), the “TGI A-549” value is 4.37E−07 Molar, the GI50 amounted to 0.312 µM and the CC50 turned out to be 0.624 µM.

Source of the values: patent US20070117743A1, “New antitumoral compounds” (priority 2003, published 2007).
